Measurements as given in patent publication US6143732A, “Sesquiterpene derivatives” (priority 1997, dated 2000).

Tested on: influenza A and B viruses
Assay: Inhibitory activity against virus (general statement)
Type: cell-based
Details: statement in words

C[C@H]1CC[C@H]2C(C)(C)[C@@H](O)CC[C@]23Oc2c(c(O)cc4c2CNC4=O)C[C@]13C [SQ-02-S5, (6a R, 7S, 9a S, 11 S, 13a S)-2,3,6,6a,7,8,9,9a,10,11,12,13-dodecahydro-5, 11-dihydroxy-6a, 7,10,10-tetramethyl-3-oxo-1H-benzo[8,8a][1]benzopyrano[2,3-e]isoindole]
inhibitory activity against virus: strong inhibitory activity against virus
